Test results as given in patent US7671023B2 (Amylin Pharmaceuticals, Inc., priority 2005, dated 2010).

How the values were obtained:
[1] = system: test animals; assay: amylin activity in vivo in treated test animals (hyperlactemia followed by hyperglycemia); details: e.g., provoking marked hyperlactemia followed by hyperglycemia
[2] = system: mice; assay: marble burying; type: in vivo, mouse; details: for reduction in marble burying, statistical significance: amylin at 10 mg/kg, buspirone at 20 mg/kg, P<0.05; for number of marbles buried in 30 minutes: injected 15-30 minutes prior to test, rat amylin 0.1, 1.0 or 10 mg/kg, buspirone 20/kg, FIG. 3
Description: (§1) These specific behavioral tests are known to be sensitive to anxiolytic, antidepressant, or antipsychotic drugs.
Marble burying is used as a model for both anxiety and obsessive-compulsive disorder. See, for example, Chaki et al. (2003) J. Pharmacol. Exp. Ther. 304:818-826. Anxiolytics suppress marble burying activity. […] Mice were then placed individually in clean cages containing 5-cm of hard wood bedding and 20 marbles spaced evenly in rows of five. The number of marbles buried in 30 minutes was recorded. […] Buspirone is a partial 5-HT1A agonist and an known anxiolytic agent.

[3] = system: mice; assay: prepulse inhibition (PPI) test; type: in vivo, mouse; details: amylin at 10 mg/kg; haloperidol 1 mg/kg; all prepulse levels tested (74, 78, and 82 dB); 120 dB stimulus; FIG. 5
Text: as §1
The prepulse inhibition (PPI) test measures the reflex response to externally applied auditory stimulation (acoustic startle response) and is related to the deficiency in sensory-motor gating capacity seen in schizophrenia. The acoustic startle reflex is a very basic response to strong exteroceptive stimuli and is widely used to assess sensorimotor reactivity in animals and humans. A weak auditory stimulus (prepulse, 74-82 dB) given prior to the strong acoustic stimulus (120 dB) blunts the startle response. This blunting of the startle response is referred to as prepulse inhibition. […] Antipsychotics increase the ability of the prepulse stimulus to blunt the startle response to the strong stimulus. Some psychotomimetic agents, such as phencyclidine (PCP) and ketamine, can actually reduce the percent prepulse inhibition and stimulate a psychotic-like state in animals, which can be antagonized by antipsychotic agents.
The mice were placed into an animal holder and the holder placed onto a transducer platform in an acoustic chamber. A weak auditory stimulus (prepulse) of 74, 78 and 82 dB was given prior to the strong acoustic stimulus (120 dB). The amount of the animal's “reaction” to the strong stimulus was recorded. […]

[4] = system: Male, Sprague-Dawley rats; assay: sugar withdrawal paradigm with restraint stress (stress-induced feeding); type: in vivo; details: rat amylin 300 μg/kg/d by osmotic pump
Description: Male, Sprague-Dawley® rats were submitted to a sugar withdrawal paradigm and observed for effects of stress on sugar intake. […] All rats were provided with ad libitum access to standard chow, water, and a 30% sucrose drink. Subsequently, the sucrose drink was removed and half of the rats were subjected, daily, to 3 h of mild restraint stress for 3 successive days. After 3 days, sucrose was provided and its daily average consumption was measured over 4 days. Chow intake was also measured over the 3 days of withdrawal and stress and over the following 4 days when sucrose was re-introduced. No restraint was applied during the 4 days of sucrose re-introduction. Results of this assay are shown in FIG. 1 where * is P<0.05 by ANOVA and Fisher LSD post-hoc analyses.

[5] = system: mice; assay: stress-induced hyperthermia (SIH) assay; type: in vivo, mouse
Text: as §1
Body temperature and emotional state are closely related in humans, and stress-induced hyperthermia (SIH) in mice is considered to have predictive validity for certain human anxiety/stress disorders. The SIH assay assesses the effect of anxiolytics or test agents on stress-induced hyperthermia and measures the intrinsic effects of these drugs on core body temperature of the animal. See, for example, Zethof et al. (1994) Physiol. Behav. […] Anxiolytics blunt the increase in body temperature, or hyperthermic response, following stress exposure. […] Mice were subjected to two sequential rectal temperature measurements ten minutes apart. The stress from the first measurement induces hyperthermia which was measured by the second temperature measurement. The difference between the two temperatures (ΔT) was the stress-induced hyperthermia.

[6] = system: Adult, male Sprague-Dawley rats; assay: weight gain induced by clozapine; type: in vivo; details: rat amylin 10 μg/kg/day co-administered with clozapine […], osmotic pump, 4 weeks; FIG. 7B
[7] = system: mice; assay: forced swim test (FST); type: in vivo, mouse; details: delivered continuously for two weeks by subcutaneous osmotic pumps; 5 minute trial session; FIG. 4
Text: as §1
The forced swim test (FST) is a commonly used paradigm to evaluate antidepressant activity of drugs. This test is based on measurement of the animal's floating time in a tank filled with water. When rats or mice are forced to swim in a deep cylinder with tepid water they become nearly immobile and cease trying to escape. This characteristic immobile posture is thought to reflect a depressive-like state and is readily influenced by a wide variety of antidepressants. See, for example, Hédou et al. (2001) Pharmacol., Biochem. Behav. […] Antidepressants decrease the immobility time in the FST. Rat amylin or vehicle was delivered continuously for two weeks to mice by subcutaneously implanted osmotic pumps prior to the FST. On day one, the mice were placed in the water tank for a 15 minute pre-swim session. On day two, the mice were placed back into the water tank for assessment of climbing, swimming, and immobility over a 5 minute trial session.

[8] = system: mice; assay: phencyclidine (PCP)-induced locomotion test; type: in vivo, mouse
Text: as §1
The PCP-induced locomotion test is used with the open field activity chambers and measures locomotion, rearing, and stereotypic activity under amphetamine/PCP-induced conditions. The test has predictive validity for some antipsychotic drugs that normalize the hyperactivity and stereotypic behavior seen with amphetamine and PCP. See, for example, Williams et al. (2006) Prog. Neuropsychopharmacol. Biol. Psychiatry 30:239-243. […] The animals were then placed in the center of an open field and activity was recorded for 60 minutes. […] CZP is an atypical, second generation antipsychotic drug has a mixed receptor profile, including the dopamine receptor.

CC[C@H](C)[C@H](NC(=O)[C@@H]1CCCN1C(=O)CNC(=O)[C@H](Cc1ccccc1)NC(=O)[C@H](CC(N)=O)NC(=O)[C@H](CC(N)=O)NC(=O)[C@H](CO)NC(=O)[C@H](CO)NC(=O)[C@H](Cc1c[nH]cn1)NC(=O)[C@@H](NC(=O)[C@H](CC(C)C)NC(=O)[C@H](Cc1ccccc1)NC(=O)[C@H](CC(N)=O)NC(=O)[C@H](C)NC(=O)[C@H](CC(C)C)NC(=O)[C@H](CCCNC(=N)N)NC(=O)[C@H](CCC(N)=O)NC(=O)[C@@H](NC(=O)[C@H](C)NC(=O)[C@@H]1CSSC[C@H](NC(=O)[C@@H](N)CCCCN)C(=O)N[C@@H](CC(N)=O)C(=O)N[C@@H]([C@@H](C)O)C(=O)N[C@@H](C)C(=O)N[C@@H]([C@@H](C)O)C(=O)N1)[C@@H](C)O)C(C)C)C(=O)N[C@@H](CC(C)C)C(=O)N1CCC[C@H]1C(=O)N1CCC[C@H]1C(=O)N[C@H](C(=O)N[C@@H](CC(N)=O)C(=O)N[C@H](C(=O)NCC(=O)N[C@@H](CO)C(=O)N[C@@H](CC(N)=O)C(=O)N[C@H](C(=O)N[C@@H](Cc1ccc(O)cc1)C(N)=O)[C@@H](C)O)C(C)C)[C@@H](C)O [^25,28,29Pro-h-amylin, reference compound]
amylin activity in vivo [1]: show amylin activity in vivo

O=C1CC2(CCCC2)CC(=O)N1CCCCN1CCN(c2ncccn2)CC1 [buspirone, reference compound]
reduction in marble burying, statistical significance [2]: statistically significant | number of marbles buried in 30 minutes [2]: reduced the number of marbles buried

O=C(CCCN1CCC(O)(c2ccc(Cl)cc2)CC1)c1ccc(F)cc1 [halperidol, haloperidol, reference compound]
percent of prepulse inhibition [3]: significantly increased the percent of prepulse inhibition

KCNTATCATQRLANFLVRSSNNLGPVLPPTNVGSNTY (listed as Rattus sp.) [rat amylin, 37-amino acid polypeptide hormone; rat species variant of amylin]
reduction in marble burying, statistical significance [2]: statistically significant | number of marbles buried in 30 minutes [2]: reduced the number of marbles buried | average sucrose to chow consumption ratio (as % of baseline) ([4]; 3 h mild restraint stress daily for 3 days, sucrose intake over following 4 days, FIG. 1A): prevents the increase in the average sucrose to chow consumption ratio | chow consumption (stress-induced decrease) ([4]; restraint stress, FIG. 1B): protects against this behavioral response to stress | percent of prepulse inhibition [3]: significantly increased the percent of prepulse inhibition | SIH response (ΔT) ([5]; acute, 60 minutes before the assay, rat amylin 0.1, 1.0 or 10 mg/kg, chlordiazepoxide 10 mg/kg, FIG. 2): blunted the SIH response | SIH response (ΔT), chronic infusion ([5]; subcutaneously implanted pumps, amylin 300 μg/kg/d, CDP 10 mg/kg/d, at both 1 week and 4 weeks of administration): significantly blunted the SIH response | weight gain observed with clozapine alone [6]: prevented the weight gain | time spent in the immobile state [7]: significantly reduced the time spent in the immobile state | baseline activity ([8]; agent alone, without PCP): did not affect baseline activity | rearing activity and PCP-induced rearing activity ([8]; open field, with and without 5 mg/kg PCP): reduced rearing activity and PCP-induced rearing activity | total distance traveled ([8]; rat amylin 0.1, 1.0 or 10 mg/kg or 3 mg/kg clozapine 15-30 minutes prior to 5 mg/kg PCP, total, central, and peripheral, 60 minutes, FIG. 6): significantly reduced the total distance traveled

^28Pro-h-amylin (KCNTATCATQRLANFLVHSSNNFGAILPSTNVGSNTY)
amylin activity in vivo [1]: show amylin activity in vivo

des-^1Lys-h-amylin (CNTATCATQRLANFLVHSSNNFGAILSSTNVGSNTY)
amylin activity in vivo [1]: show amylin activity in vivo

des-^1Lys^18Arg^25,28Pro-h-amylin (CNTATCATQRLANFLVRSSNNFGPILPSTNVGSNTY)
amylin activity in vivo [1]: show amylin activity in vivo
